# Experimental data from paper PMC12515563, “Kinetic, Spectral, and Structural Characterization of a Heme-Containing Peroxidase From the Skin of Cucurbita maxima” (Biochemistry Research International, 2025).
# Target: T1, horseradish peroxidase (HRP) (Armoracia rusticana, UniProt P00433)
# T1 construct: gene PRXC1A; commercial horseradish peroxidase
# T1 sequence (P00433 31-338): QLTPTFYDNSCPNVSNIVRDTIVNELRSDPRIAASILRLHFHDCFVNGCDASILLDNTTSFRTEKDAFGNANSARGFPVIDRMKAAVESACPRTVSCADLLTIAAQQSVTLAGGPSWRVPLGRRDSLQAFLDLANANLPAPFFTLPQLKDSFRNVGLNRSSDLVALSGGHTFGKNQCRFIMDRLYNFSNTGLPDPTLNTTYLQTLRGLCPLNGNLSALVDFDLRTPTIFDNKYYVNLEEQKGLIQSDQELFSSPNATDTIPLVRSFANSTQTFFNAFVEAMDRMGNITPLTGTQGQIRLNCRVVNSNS
# Experiment: UV-vis absorption difference spectra (data not shown)
# Assay type: binding
smiles,measurement,value
CC(=O)O [acetate],UV-vis absorption difference spectra (data not shown),both HRP and PKS demonstrated similar effects with acetate in the current study (data not shown)
